Source: US20250051347A1, “BIFUNCTIONAL CHIMERIC HETEROCYCLIC COMPOUND AND USE THEREOF AS ANDROGEN RECEPTOR DEGRADER” (Hinova Pharmaceuticals, Inc., priority 2021, published 2025)

Target: T1, androgen receptor (AR) splicing variant AR-v7 (Homo sapiens, UniProt P10275)
T1 construct: The degradation activity of compounds on AR-v7 in 22RV1 cells; host or cells: 22RV1 cells
T1 sequence (P10275 1-644 isoform P10275-3): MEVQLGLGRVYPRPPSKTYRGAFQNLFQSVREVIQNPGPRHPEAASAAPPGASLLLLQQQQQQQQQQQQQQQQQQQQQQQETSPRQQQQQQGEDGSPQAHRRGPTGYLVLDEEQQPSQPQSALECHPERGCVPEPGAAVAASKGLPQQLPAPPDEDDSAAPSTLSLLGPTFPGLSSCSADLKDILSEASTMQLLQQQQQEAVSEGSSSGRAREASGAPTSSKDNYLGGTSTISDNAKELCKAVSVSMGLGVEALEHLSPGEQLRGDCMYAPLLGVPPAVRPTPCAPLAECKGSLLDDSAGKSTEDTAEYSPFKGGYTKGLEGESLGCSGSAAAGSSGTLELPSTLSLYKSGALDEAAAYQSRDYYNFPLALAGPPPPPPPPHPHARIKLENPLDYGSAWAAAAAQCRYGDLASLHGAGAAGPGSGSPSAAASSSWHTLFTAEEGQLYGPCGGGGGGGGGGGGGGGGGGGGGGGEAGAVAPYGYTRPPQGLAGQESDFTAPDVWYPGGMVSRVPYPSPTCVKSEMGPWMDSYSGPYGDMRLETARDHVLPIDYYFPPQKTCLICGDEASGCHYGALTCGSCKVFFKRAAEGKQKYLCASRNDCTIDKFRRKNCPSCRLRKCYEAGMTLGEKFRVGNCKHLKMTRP
Assay: Degradation activity on androgen receptor splicing variant AR-v7 in 22RV1 cells (ELISA)
Format: cell-based
Conditions: AR-v7 degradation in 22RV1 cells, 48 h
Protocol: The degradation activity of the compound of the present invention on the androgen receptor splicing variant AR-V7 was analyzed using enzyme-linked immunosorbent assay (ELISA).
The plate was cultured in a 5% CO2 cell incubator at 37° C. for 2 days until the cells adhered to the wall. • 2) The drug was prepared into 10 mM stock solution with dimethylsulfoxide (DMSO). […] The plate was gently shaken and mixed. In addition, negative control wells (only containing culture medium) and positive control wells (only containing cells and DMSO) were set. • 3) After the cells were cultured in an incubator for 48 h, the medium was removed and the cells were rinsed once with ice cold PBS. Then, ice-cold 1× cell lysis buffer was added to each well of the cell culture plate. After the plate was incubated on ice for 15 min, the plate was tapped to mix. • 4) The supernatant of the cell lysate was transferred from the cell culture plate to a […] plate for ELISA. • 5) The newly prepared Capture antibody (green) was mixed with the newly prepared HRP-labeled antibody (red), and then the antibody mixture was added to the above 96-well ELISA plate. • 6) The ELISA plate was sealed with plastic film, and then incubated in a 25° C. incubator for 1 h. • 7) The washing buffer was added to each well, and then TMB substrate was added to each well of the ELISA plate. Subsequently, the plate was cultured in an incubator at 37° C. for 5 min. • 8) 100 μl of stop solution was added to each well of the ELISA plate, and the plate was gently tapped for several seconds. The absorbance was read at 450 nm within 30 min. The data were analyzed by the Dose-response equation in the software GraphPad Prism8, to obtain DC50 and Dmax values.

Row | Structure (SMILES) | DC50 (numeric values) [nM] | DC50 (class symbols) [nM]
1 | CC(C)(c1ccc(OCCCCCCCCOCCCCNc2ccc3c(c2)C(=O)N(C2CCC(=O)NC2=O)C3=O)cc1)c1ccc(OCc2ccnc(N)n2)cc1 (stereo not shown) [Example 28, 5-((4-((8-(4-(2-(4-((2-aminopyrimidin-4-yl)methoxy)phenyl)propan-2-yl)phenoxy)octyl)oxy)butyl)amino)-2-(2,6-dioxopiperidin-3-yl)isoindolin-1,3-dione] | 5270 | –
2 | CC(C)(c1ccc(OCCCN2CCN(CC3CCN(CC4CN(c5ccc6c(c5)C(=O)N(C5CCC(=O)NC5=O)C6=O)C4)CC3)CC2)cc1)c1ccc(OCc2ccnc(NS(C)(=O)=O)n2)cc1 (stereo not shown) [Example 11, N-(4-((4-(2-(4-(3-(4-((1-((1-(2-(2,6-dioxopiperidin-3-yl)-1,3-dioxoisoindolin-5-yl)azetidin-3-yl)methyl)piperidin-4-yl)methyl)piperazin-1-yl)propoxy)phenyl)propan-2-yl)phenoxy)methyl)pyrimidin-2-yl)methanesulfonamide] | – | 1000 to 5000
3 | CC(C)(c1ccc(OCCCCCCOCCCCN2CCN(c3ccc4c(c3)C(=O)N(C3CCC(=O)NC3=O)C4=O)CC2)cc1)c1ccc(OCc2ccnc(NS(C)(=O)=O)n2)cc1 (stereo not shown) [Example 8, N-(4-((4-(2-(4-((6-(4-(4-(2-(2,6-dioxopiperidin-3-yl)-1,3-dioxoisoindolin-5-yl)piperazin-1-yl)butoxy)hexyl)oxy)phenyl)propan-2-yl)phenoxy)methyl)pyrimidin-2-yl)methanesulfonamide] | 5270 | –
4 | CC(C)(c1ccc(OCCCCCNc2ccc3c(c2)C(=O)N(C2CCC(=O)NC2=O)C3=O)cc1)c1ccc(OCc2ccnc(NS(C)(=O)=O)n2)cc1 (stereo not shown) [Example 38, N-(4-((4-(2-(4-((5-((2-(2,6-dioxopiperidin-3-yl)-1,3-dioxoisoindolin-5-yl)amino)pentyl)oxy)phenyl)propan-2-yl)phenoxy)methyl)pyrimidin-2-yl)methanesulfonamide] | > 5000 | –
5 | CC(C)(c1ccc(OCCCCCCCOCCCOCCCNc2cccc3c2C(=O)N(C2CCC(=O)NC2=O)C3=O)cc1)c1ccc(OCc2ccnc(NS(C)(=O)=O)n2)cc1 (stereo not shown) [Example 23] | – | 1000 to 5000
6 | CN(C)C(=O)c1noc(COc2ccc(C(C)(C)c3ccc(OCCCNc4ccc5c(c4)C(=O)N(C4CCC(=O)NC4=O)C5=O)cc3)cc2)n1 (stereo not shown) [Example 180, 5-((4-(2-(4-(3-((2-(2,6-dioxopiperidin-3-yl)-1,3-dioxoisoindolin-5-yl)amino)propoxy)phenyl)propan-2-yl)phenoxy)methyl)-N,N-dimethyl-1,2,4-oxadiazol-3-carbonylamine] | – | 1000 to 5000
7 | CC(C)(c1ccc(OCc2ccnc(NS(C)(=O)=O)n2)cc1)c1ccc(OCC2CN(c3ccc4c(c3)C(=O)N(C3CCC(=O)NC3=O)C4=O)C2)cc1 (stereo not shown) [Example 48, N-(4-((4-(2-(4-((1-(2-(2,6-dioxopiperidin-3-yl)-1,3-dioxoisoindolin-5-yl)azetidin-3-yl)methoxy)phenyl)propan-2-yl)phenoxy)methyl)pyrimidin-2-yl)methanesulfonamide] | > 10000 | –
8 | CC(=O)c1nccc(COc2ccc(C(C)(C)c3ccc(OC4CC5(C4)CN(c4ccc6c(c4)C(=O)N(C4CCC(=O)NC4=O)C6=O)C5)cc3)cc2)n1 (stereo not shown) [Example 561] | – | 11 to 100
9 | CC(=O)c1nccc(COc2ccc(C(C)(C)c3ccc(OC4CC5(CCN(c6ccc7c(c6)C(=O)N(C6CCC(=O)NC6=O)C7=O)C5)C4)cc3)cc2)n1 (stereo not shown) [Example 562] | – | 1000 to 5000
10 | CC(C)(c1ccc(Oc2nc(-n3nccn3)ccc2F)cc1)c1ccc(O[C@H]2C[C@H](Nc3ccc4c(c3)C(=O)N(C3CCC(=O)NC3=O)C4=O)C2)cc1 (stereo partly shown) [Example 320] | – | 11 to 100
11 | CC(C)(c1ccc(OCc2ccnc(NS(C)(=O)=O)n2)cc1)c1ccc(OCC2CN(c3cccc4c3C(=O)N(C3CCC(=O)NC3=O)C4=O)C2)cc1 (stereo not shown) [Example 49, N-(4-((4-(2-(4-((1-(2-(2,6-dioxopiperidin-3-yl)-1,3-dioxoisoindolin-4-yl)azetidin-3-yl)methoxy)phenyl)propan-2-yl)phenoxy)methyl)pyrimidin-2-yl)methanesulfonamide] | – | 1000 to 5000
12 | CC(C)(c1ccc(OCc2ccnc(N3CC4(COC4)C3)n2)cc1)c1ccc(OC2CCC(Nc3ccc4c(c3)C(=O)N(C3CCC(=O)NC3=O)C4=O)C2)cc1 (stereo not shown) [Example 563, 5-((3-(4-(2-(4-((2-(2-oxa-6-azaspiro[3.3]heptan-6-yl)pyrimidin-4-yl)methoxy)phenyl)propan-2-yl)phenoxy)cyclopentyl)amino)-2-(2,6-dioxopiperidin-3-yl)isoindolin-1,3-dione] | – | 11 to 100
13 | CC(C)(c1ccc(OCCCNc2ccc3c(c2)C(=O)N(C2CCC(=O)NC2=O)C3=O)cc1)c1ccc(OCc2ccnc(N3CCCC3)n2)cc1 (stereo not shown) [Example 440, 2-(2,6-dioxopiperidin-3-yl)-5-((3-(4-(2-(4-((2-(pyrrolidin-1-yl)pyrimidin-4-yl)methoxy)phenyl)propan-2-yl)phenoxy)propyl)amino)isoindolin-1,3-dione] | – | 11 to 100
14 | CC(=O)c1nccc(COc2ccc(C(C)(C)c3ccc(OC[C@H]4CCN4c4ccc5c(c4)C(=O)N(C4CCC(=O)NC4=O)C5=O)cc3)cc2)n1 (stereo partly drawn) [Example 307, 5-((R)-2-((4-(2-(4-((2-acetylpyrimidin-4-yl)methoxy)phenyl)propan-2-yl)phenoxy)methyl)azetidin-1-yl)-2-(2,6-dioxopiperidin-3-yl)isoindolin-1,3-dione] | – | 1000 to 5000
15 | Cc1nc(-c2ccc(Oc3ccc(C(C)(C)c4ccc(O[C@H]5C[C@@H](Nc6ccc7c(c6)C(=O)N(C6CCC(=O)NC6=O)C7=O)C5)cc4)cc3)nn2)no1 (stereo partly shown) [Example 337] | – | 11 to 100
16 | CC(C)(c1ccc(OCCCCCCCCOCCCCNc2cccc3c2C(=O)N(C2CCC(=O)NC2=O)C3=O)cc1)c1ccc(OCc2ccnc(NS(C)(=O)=O)n2)cc1 (stereo not shown) [Example 21, N-(4-((4-(2-(4-((8-(4-((2-(2,6-dioxopiperidin-3-yl)-1,3-dioxoisoindolin-4-yl)amino)butoxy)octyl)oxy)phenyl)propan-2-yl)phenoxy)methyl)pyrimidin-2-yl)methanesulfonamide] | 5770 | –
17 | CN(C)[C@@H]1CCCN(c2nccc(COc3ccc(C(C)(C)c4ccc(O[C@H]5C[C@@H](Nc6ccc7c(c6)C(=O)N(C6CCC(=O)NC6=O)C7=O)C5)cc4)cc3)n2)C1 (stereo partly shown) [Example 402] | – | 11 to 100
18 | CC(C)(c1ccc(OCCNc2cccc3c2C(=O)N(C2CCC(=O)NC2=O)C3=O)cc1)c1ccc(OCc2ccnc(NS(C)(=O)=O)n2)cc1 (stereo not shown) [Example 53, N-(4-((4-(2-(4-(2-((2-(2,6-dioxopiperidin-3-yl)-1,3-dioxoisoindolin-4-yl)amino)ethoxy)phenyl)isopropan-2-yl)phenoxy)methyl)pyrimidin-2-yl)methanesulfonamide] | – | 1000 to 5000
19 | CC(C)(c1ccc(Oc2ccc(-n3nccn3)cc2)cc1)c1ccc(O[C@H]2C[C@H](Nc3ccc4c(c3)C(=O)N(C3CCC(=O)NC3=O)C4=O)C2)cc1 (stereo partly shown) [Example 334] | – | 11 to 100
20 | CC(C)(c1ccc(OCc2ccnc(N3CC4(CNC4)C3)n2)cc1)c1ccc(O[C@H]2C[C@@H](Nc3ccc4c(c3)C(=O)N(C3CCC(=O)NC3=O)C4=O)C2)cc1 (stereo partly shown) [Example 86] | – | 11 to 100
21 | Cc1nc(-c2ccnc(Oc3ccc(C(C)(C)c4ccc(O[C@H]5C[C@@H](Nc6ccc7c(c6)C(=O)N(C6CCC(=O)NC6=O)C7=O)C5)cc4)cc3)c2)no1 (stereo partly shown) [Example 481] | – | 11 to 100
22 | Cc1nc(-c2cnc(Oc3ccc(C(C)(C)c4ccc(O[C@H]5C[C@H](Nc6ccc7c(c6)C(=O)N(C6CCC(=O)NC6=O)C7=O)C5)cc4)cc3)nc2)no1 (stereo partly shown) [Example 327] | – | 11 to 100
23 | CC(C)(c1ccc(Oc2ccc(-n3cccn3)nc2)cc1)c1ccc(O[C@H]2C[C@@H](Nc3ccc4c(c3)C(=O)N(C3CCC(=O)NC3=O)C4=O)C2)cc1 (stereo partly shown) [Example 542] | – | 11 to 100
24 | CC(C)(c1ccc(OCc2ccnc(N3CC4(COC4)C3)n2)cc1)c1ccc(O[C@H]2CCC[C@H]2Nc2ccc3c(c2)C(=O)N(C2CCC(=O)NC2=O)C3=O)cc1 (stereo partly shown) [Example 315] | – | 1000 to 5000
25 | CS(=O)(=O)Nc1cc(COc2ccc(C3(c4ccc(OCCCCCCCCOCCCCNc5ccc6c(c5)C(=O)N(C5CCC(=O)NC5=O)C6=O)cc4)CCC3)cc2)ccn1 (stereo not shown) [Example 58] | – | 1000 to 5000
